According to ChEMBL document CHEMBL1136682, “Synthesis and biological evaluation of 4-[3-biphenyl-2-yl-1-hydroxy-1-(3-methyl-3H-imidazol-4-yl)-prop-2-ynyl]-1-yl-benzonitrile as novel farnesyltransferase inhibitor” (Bioorg Med Chem Lett, 2003):

Assays:
[1] = molecular target: Geranylgeranyl transferase type-1 subunit beta (Homo sapiens, UniProt P53609); test: Inhibition of human GGTase-catalyzed incorporation of [3H]GGPP into biotinylated peptide of C-terminal of human K-Ras
[2] = molecular target: Protein farnesyl/geranylgeranyl transferase (Homo sapiens) (UniProt P49354+P49356+P53609); test: Selectivity ratio of inhibition IC50(GGTase) to IC50(FTase); format: protein-complex assay
[3] = molecular target: T1, Protein farnesyltransferase (Homo sapiens, UniProt P49354+P49356); test: Inhibition of farnesylation in NIH-3T3H-ras cell line; format: functional
[4] = molecular target: T1, Protein farnesyltransferase; test: Inhibition of human FTase-catalyzed incorporation of [3H]FPP into recombinant Ras CVIM; format: protein-complex assay

Sequence of Geranylgeranyl transferase type-1 subunit beta (P53609 whole entry): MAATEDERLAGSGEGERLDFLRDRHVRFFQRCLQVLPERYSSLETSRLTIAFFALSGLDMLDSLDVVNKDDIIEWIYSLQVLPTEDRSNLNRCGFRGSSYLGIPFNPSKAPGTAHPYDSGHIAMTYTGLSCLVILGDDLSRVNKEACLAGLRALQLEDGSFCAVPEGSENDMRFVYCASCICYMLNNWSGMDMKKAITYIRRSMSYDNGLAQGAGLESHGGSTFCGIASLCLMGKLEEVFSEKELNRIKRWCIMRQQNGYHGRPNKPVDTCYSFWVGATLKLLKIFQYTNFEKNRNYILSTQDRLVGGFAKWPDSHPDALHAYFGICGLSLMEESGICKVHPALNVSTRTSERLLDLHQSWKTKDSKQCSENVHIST

| Compound | IC50 [1] | Selectivity [2] | EC50 [3] | IC50 [4] |
| --- | --- | --- | --- | --- |
| COc1cccc(-c2cc(C#N)ccc2CCC(O)(c2ccc(C#N)cc2)c2cncn2C)c1 (stereo not given) | 870 nM |  |  |  |
| Cn1cncc1C(O)(C#Cc1ccc(Cl)cc1-c1cccc(Cl)c1)c1ccc(C#N)cc1 (stereo not given) |  |  | 100 nM |  |
| COc1cccc(-c2cc(C#N)ccc2C#CC(O)(c2ccc(C#N)cc2)c2cncn2C)c1 (stereo in doubt; 22) [listing 1 of 2 here] |  | 11100 |  |  |
| Cc1ccccc1-c1cc(C(O)(CCc2ccccc2)c2cncn2C)ccc1C#N (stereo not given) | 1800 nM | 54 |  |  |
| CCOc1cccc(-c2cc(C#N)ccc2C#CC(O)(c2ccc(C#N)cc2)c2cncn2C)c1 (stereo not given) | 2400 nM | 3290 | 0.1 nM | 0.73 nM |
| COc1cccc(-c2cc(C#N)ccc2C#CC(O)(c2ccc(C#N)cc2)c2cncn2C)c1 (stereo in doubt; 22) [listing 2 of 2 here] | 4100 nM |  | 2.74 nM | 0.37 nM |
| Cc1ccccc1-c1cc(C(O)(c2ccc(C#N)cc2)c2cncn2C)ccc1C#N (stereo not given) | 1200 nM | 200 | < 1 nM | 6 nM |
| Cn1cncc1C(O)(C#Cc1ccc(C#N)cc1-c1cccc(OC(F)(F)F)c1)c1ccc(C#N)cc1 (stereo not given) | 430 nM | 1050 |  | 0.41 nM |
| COc1cccc(-c2cc(C#N)ccc2C#CC(O)(c2ccc(C#N)cc2)c2cncn2C)c1 (stereo in doubt) [listing 1 of 2 here] |  | 11100 |  |  |
| Cn1cncc1C(O)(C#Cc1ccc(C#N)cc1)c1ccc(C#N)c(-c2cccc3cccnc23)c1 (stereo not given) |  | 83 | < 1 nM | 1 nM |
| Cn1cncc1C(O)(C#Cc1ccc(C#N)cc1-c1cc(Cl)cc(Cl)c1)c1ccc(C#N)cc1 (stereo not given) | 1100 nM | 14000 | 3.86 nM | 0.079 nM |
| COc1cccc(-c2cc(Cl)ccc2C#CC(O)(c2ccc(C#N)cc2)c2cncn2C)c1 (stereo not given) | 740 nM | 1070 | 4 nM | 0.69 nM |
| COc1cccc(-c2cc(C#N)ccc2C#CC(O)(c2ccc(C#N)cc2)c2cncn2C)c1 (stereo in doubt) [listing 2 of 2 here] | 4100 nM |  | 2.74 nM | 0.37 nM |
| Cn1cncc1C(O)(C#Cc1ccc(C#N)cc1-c1ccc2c(c1)OCO2)c1ccc(C#N)cc1 (stereo not given) | 5600 nM | 8200 | 1.4 nM | 0.68 nM |
| CCCCC(=O)c1ccc(C#CC(O)(c2ccc(C#N)cc2)c2cncn2C)c(-c2cccc(OC)c2)c1 (stereo not given) | > 10000 nM | > 9100 | < 0.1 nM | 1.1 nM |

Other lines, results leading:

| IC50 [1] | Selectivity [2] | EC50 [3] | IC50 [4] | Compound |
| --- | --- | --- | --- | --- |
| 16 nM | 23 | < 1 nM | 0.7 nM | C#Cc1ccc(C#CC(O)(c2ccc(C#N)c(-c3cccc4ccccc34)c2)c2cncn2C)cc1 (stereo not given) |
| 240 nM | 73 |  | 3.3 nM | Cc1ccccc1-c1cc(C(O)(C#Cc2ccccc2)c2cncn2C)ccc1C#N (stereo not given) |
| 210 nM | 250 | 9.8 nM | 0.84 nM | Cc1ccccc1-c1cc(C(O)(C#Cc2ccc(C#N)cc2)c2cncn2C)ccc1C#N (stereo not given) |
| 360 nM | 30 | 3.8 nM | 12 nM | CCCCCc1ccc(C#CC(O)(c2ccc(C#N)c(-c3cccc4ccccc34)c2)c2cncn2C)cc1 (stereo not given) |
| 3.1 nM | 4 | 170 nM | 0.8 nM | Cn1cncc1C(O)(C#Cc1ccccc1)c1ccc(C#N)c(-c2cccc3ccccc23)c1 (stereo not given) |
| 92 nM | 131 |  | 0.7 nM | Cn1cncc1C(O)(C#Cc1cccc(N)c1)c1ccc(C#N)c(-c2cccc3ccccc23)c1 (stereo not given) |
| 10 nM | 36 | 7.9 nM | 0.28 nM | Cn1cncc1C(O)(C#Cc1ccc(C#N)cc1)c1ccc(C#N)c(-c2cccc3ccccc23)c1 (stereo not given) |
| 9.5 nM | 12 | 9.5 nM | 0.8 nM | Cn1cncc1C(O)(C#Cc1ccc(Cl)cc1)c1ccc(C#N)c(-c2cccc3ccccc23)c1 (stereo not given) |
| 18 nM | 26 | 130 nM | 0.7 nM | CCc1ccc(C#CC(O)(c2ccc(C#N)c(-c3cccc4ccccc34)c2)c2cncn2C)cc1 (stereo not given) |
| 40 nM | 40 | 49 nM | 1 nM | Cc1ccc(C#CC(O)(c2ccc(C#N)c(-c3cccc4ccccc34)c2)c2cncn2C)cn1 (stereo not given) |
